The target of data set [1] is T1, Transient receptor potential cation channel subfamily V member 1 (Homo sapiens, UniProt Q8NER1). Put plainly: Antagonist activity at TRPV1 (unknown origin).
A short description of data set [2]: Lipophilicity, […] of the compound at pH 6.5. The format is physicochemical. As to conditions: buffer.
In data set [3] the target is T1, Transient receptor potential cation channel subfamily V member 1. Description: Agonist activity at human TRPV1 overexpressed in HEK293 cells incubated for 1 hr by Fluo-4 AM dye based microscopic analysis. The format is cell-based.
Data set [4] is described as follows: Lipophilicity, log P of the compound in PBS buffer. The data set is classed as physicochemical.
Data set [5] has as its target T1, Transient receptor potential cation channel subfamily V member 1. Description: Antagonist activity at human recombinant TPRV1.
For data set [6] the target is unchanged. Put plainly: Activation of human TRPV1 expressed in HEK293F cells. The format is cell-based.
For data set [7] the target is unchanged. Description: Binding affinity to human TRPV1 assessed as inhibition constant by SPR analysis. A general note: In SPR one partner is held on a chip, and binding of the other changes the refractive index at the surface.
The species entered for data set [8] is Mus musculus. Put plainly: Analgesic activity in CCI-induced neuropathic pain in wild type C57BL/6 mouse model assessed as reduction in paw threshold pain measured after 2 hrs. The data set is classed as functional.
Data set [9] concerns the target T1, Transient receptor potential cation channel subfamily V member 1. Description: Inhibition of TRPV1 (unknown origin).
The test system of data set [10] is Mus musculus. Description: Analgesic activity in CCI-induced neuropathic pain mouse model assessed as increase in mechanical paw withdrawal threshold at 5 mg/kg,ip administration measured after 30 mins by von frey test. The format is functional, organism-based. As to conditions: 0.5 h.

T1 sequence (Q8NER1 whole entry): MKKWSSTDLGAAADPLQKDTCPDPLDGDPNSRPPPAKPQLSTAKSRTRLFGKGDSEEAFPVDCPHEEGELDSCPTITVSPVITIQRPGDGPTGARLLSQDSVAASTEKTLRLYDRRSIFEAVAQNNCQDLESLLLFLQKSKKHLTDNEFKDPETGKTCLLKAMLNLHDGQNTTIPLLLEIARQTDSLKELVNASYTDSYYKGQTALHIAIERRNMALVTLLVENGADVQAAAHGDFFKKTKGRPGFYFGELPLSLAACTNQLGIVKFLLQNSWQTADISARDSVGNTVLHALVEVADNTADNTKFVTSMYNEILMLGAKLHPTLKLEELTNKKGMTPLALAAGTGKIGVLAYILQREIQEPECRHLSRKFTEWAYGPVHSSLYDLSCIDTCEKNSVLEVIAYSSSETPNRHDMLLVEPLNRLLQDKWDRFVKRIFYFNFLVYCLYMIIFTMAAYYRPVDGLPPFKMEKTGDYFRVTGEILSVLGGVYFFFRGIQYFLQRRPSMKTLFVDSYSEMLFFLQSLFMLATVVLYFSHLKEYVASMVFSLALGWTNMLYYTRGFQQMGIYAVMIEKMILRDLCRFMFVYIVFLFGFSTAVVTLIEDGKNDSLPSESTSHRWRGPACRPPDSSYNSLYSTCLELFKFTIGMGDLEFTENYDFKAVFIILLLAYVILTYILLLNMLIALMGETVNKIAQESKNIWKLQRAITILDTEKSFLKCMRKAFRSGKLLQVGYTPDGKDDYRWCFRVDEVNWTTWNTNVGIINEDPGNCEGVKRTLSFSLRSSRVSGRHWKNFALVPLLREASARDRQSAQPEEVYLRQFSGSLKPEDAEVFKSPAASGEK

In [1], `CC(C)(C)c1ccc(CNC(=S)NCc2ccc(NS(C)(=O)=O)cc2)cc1` gave a 50% inhibitory concentration (IC50) of 0.11 nM.
For `CC(C)(O)c1ccccc1-c1ccc2[nH]c(/C=C/c3ccc(C(F)(F)F)cc3)nc2c1`, the pH-dependent lipophilicity (logD) in [2] was determined as 6.27.
Molecule `COc1cc(C/N=C(\S)NCc2ccc(Cl)cc2)cc(I)c1O` registered an IC50 in data set [1] of 106 nM.
On to `CC(C)(C)c1ccc(CNC(=S)NCc2ccc(NS(C)(=O)=O)c(F)c2)cc1`, for which it took 8 nM to reach half-maximal inhibition in [1] (IC50).
Turning to `O=C(Nc1ccc(C(F)(F)F)cn1)N1CC=C(c2ncc([C@H](O)CO)cc2Cl)CC1`, the log distribution coefficient (logD) in [2] was 2.11.
Regarding `O=C(Nc1ccc(C(F)(F)F)cc1)N1CC=C(c2ncc([C@H](O)CO)cc2Cl)CC1`, the IC50 in [3] is 33.8 nM.
The molecule `CC(C)=CCCC1(C)CC1CO` (centres undefined) registered a logP in data set [4] of 2.5.
On to `CCCc1nc(C(F)(F)F)ccc1/C=C/C(=O)N[C@H](C)c1cc(F)c(NS(C)(=O)=O)c(F)c1`, for which, in data set [2], the logD came out at 3.67.
Turning to `C[C@H](NC(=O)Cn1cnc2ccc(F)c(F)c21)c1ccc(C(C)(C)C)cc1`, the logD in data set [2] was 4.34. The IC50 in data set [5] is 5 nM.
`CC(C)c1nc2cc(O)ccc2c(=O)n1-c1ccc(C#N)cc1` registered a logD in data set [2] of 3.45.
Regarding `O=C(Nc1cccc2cnccc12)N1CCC[C@H]1CNc1ccc(Br)cc1`, the 50% inhibitory concentration (IC50) in [6] is 84 nM.
As for `CC(C)(C)C(=O)OCC(CNC(=S)NCc1ccc(NS(C)(=O)=O)c(F)c1)Cc1ccccc1` (centres undefined), in [7], the inhibitory constant (Ki) amounted to 7.8 nM.
`CC(C)(C)c1ccc2c(c1)CC[C@H]2NC(=O)Nc1cccc2[nH]ncc12` [ABT-102] came in with a log distribution coefficient (logD) in data set [2] of 4.59.
In the case of `CC(=O)Nc1nc2c(Oc3cc(-c4ccc(C(F)(F)F)cc4)ncn3)cccc2s1` [AMG-517], in the data set listed under Mus musculus [8], the Activity was found to be 760 nM.
Consider `COc1cc(CNC(=O)CCCC/C=C/C(C)C)ccc1O` [CAPSAICIN], for which the logP in data set [4] was 3.74.
With `Cc1ccc(N2c3cccc(C(=O)Nc4ccc(OCC(F)(F)F)nc4)c3OC[C@@H]2CO)nc1` [JTS-653], the pH-dependent lipophilicity (logD) in data set [2] came to 3.83. The IC50 in data set [5] was determined as 236 nM.
The molecule `CC(C)c1cccc(C(C)C)c1O` [PROPOFOL] came in with a half-inhibitory concentration (IC50) in data set [9] of 5.05 nM. In addition, the logP in [4] was determined as 4.15.
On to `C=C(C)[C@]12C[C@@H](C)[C@@]34O[C@](Cc5ccccc5)(O[C@@H]1[C@@H]3C=C(COC(=O)Cc1ccc(O)c(OC)c1)C[C@]1(O)C(=O)C(C)=C[C@@H]41)O2` [RESINIFERATOXIN], for which the concentration giving a half-maximal response (EC50) with Mus musculus [10] was 920 nM.
For the molecule `O=C(Nc1ccccc1Br)N[C@@H]1CCN(c2ccc(C(F)(F)F)cn2)C1` [SB-705498], the log distribution coefficient (logD) in data set [2] is 3.98. The Activity in the data set listed under Mus musculus [8] was found to be 8.8 nM.
`CNCC1CCCCN1C(=O)Oc1ccc(CNC(=O)CCCC/C=C/C(C)C)cc1OC` (centres undefined) [VOCACAPSAICIN] gave a logP in data set [4] of 4.32.

For orientation: IC50 means the concentration that gives 50% inhibition. By logD is commonly meant lipophilicity at a set pH, counting ionised and neutral species. Read a high logD as a more lipophilic compound. What is called logP is the decadic logarithm of the partition coefficient of the neutral form, usually between octanol and water. Read a low logP as lower lipophilicity. For orientation: Ki means the dissociation constant of the complex between target and ligand, obtained from inhibition or displacement. The term EC50 denotes the midpoint of the concentration-response curve.
